Each structure is given as a SMILES string. pIC50: −log10 of the molar value. Read-outs that look alike come from different tables or passages of the source. A value given as a limit tells only on which side of the number the result lay.

In data set [1] the test system is CML. Conditions: combined with nilotinib; cited from earlier work.
Data set [2] is described as follows: Pharmacokinetic experiment in rats. The note with it: rat; for F (oral availability): PO 20 mg/kg vs IV 2 mg/kg; for MRT inf: read-out: MRTINF pred. It counts as in vivo, Sprague-Dawley rats. Set-up: Cl pred: unit not given here. The procedure: Rats were fed with a standard diet and water. Fasting began 16 hours before the test. The drugs were dissolved in PEG400 and dimethyl sulfoxide. Blood was collected from the eyelids at a time point of 0.083 hour, 0.25 hour, 0.5 hour, 1 hour, 2 hours, 4 hours, 6 hours, 8 hours, 12 hours, and 24 hours after administration. Rats were briefly anesthetized after inhalation of ether, and 300 μL of blood samples were collected from the eyelids to test tubes. There was 30 μL of 1% heparin salt solution in the test tube. […] After the blood sample was collected at the last time point, rats were anesthetized with ether and sacrificed. Immediately after the collection, blood samples were sufficiently mixed by gently inverting the tube at least 5 times, and were placed on ice. […] Plasma was stored at −80° C. prior to analysis. The concentration of the compounds disclosed herein in plasma was determined by LC-MS/MS. Pharmacokinetic parameters were calculated based on drug concentrations in plasma of each animal at different time points.

Data set [3] has as its system Ba/F3 parent cells. Briefly: Cytotoxicity experiment (CellTiter-Glo), Ba/F3 parent cells. The note with it: Ba/F3 parental cells with 8 ng/ml IL-3, 3 days incubation. Format: cell-based. The protocol: 1. […] The cell plates were placed in carbon dioxide culture and incubated overnight.
2. Preparation of test compounds: The test compounds were dissolved in DMSO and subjected to a 3.16-fold gradient dilution in triplicate, 9 concentrations were obtained, starting from the concentration of 10 μM.
3. Treatment of Cells with compounds: Compounds at various concentrations were transferred to cell plates. The cell plates were incubated in a carbon dioxide incubator for 3 days.
4. Detection: CellTiter-Glo4 reagent was added to the cell plates, which were incubated for 30 minutes at room temperature to stabilize the luminescence signal. Readings were performed using a PerkinElmer Envision multi-label analyzer.
On the technique in general: Cellular ATP, detected with luciferase, serves as a proxy for viable cell number.

In data set [4] the test system is Ebola virus. Conditions: in vitro; cited from earlier work.
Setting [5] is: male, Sprague-Dawley, plasma, IV 2 mg/kg single dose.
The mark [6] stands for this setting: male, Sprague-Dawley, plasma, PO 20 mg/kg single dose.

As for `O=C(Nc1ccc(OC(F)(F)Cl)cc1)c1cnc(N2CC[C@@H](O)C2)c(-c2ccn[nH]2)c1` [ABL-001, (R)—N-(4-(chlorodifluoromethoxy)phenyl)-6-(3-hydroxypyrrolidin-1-yl)-5-(1H-pyrazol-5-yl)nicotinamide, reference compound], the “eradication of CML in a mouse model” value in data set [1] is “effective in eradicating CML”. Also, the “F (oral availability)” value in data set [2] is reported as 19.86%.

`O=C(Nc1ccc(OC(F)(F)Cl)cc1)c1cnc(N2CC[C@@H](O)C2)c(-c2ccsn2)c1` [Example 1, (R)-6-(3-hydroxypyrrolidin-1-yl)-5-(isothiazol-3-yl)-N-(4-(chlorodifluoromethoxy)phenyl) nicotinamide]: the pIC50 in data set [3] (Mus musculus, BaF3, 72 h) is < 6.00.

Take `O=C(Nc1ccc(OC(F)(F)Cl)cc1)c1cnc(N2CC[C@@H](O)C2)c(-c2cnsc2)c1` [Example 2, (R)-6-(3-hydroxypyrrolidin-1-yl)-5-(isothiazol-4-yl)-N-(4-(chlorodifluoromethoxy)phenyl) nicotinamide]: the pIC50 in data set [3] (Mus musculus, BaF3, 72 h) is < 6.00. Besides, in data set [2] (setting [5]), the AUC(0-t) was determined as 5450 ng·h/mL, the Cmax was 5280 ng/mL and the MRT inf came out at 1.17 h. Besides, the Vd in data set [2] (male, Sprague-Dawley, plasma, IV 2 mg/kg single dose, read-out: Vz pred) was 0.57 L/kg. In addition, in data set [2] (setting [6]), the AUC(0-t) worked out at 21100 ng·h/mL, the Cmax worked out at 2580 ng/mL and the MRT inf came to 5.13 h. In data set [2] (IV 2 mg/kg single dose), this molecule came in with a Cl pred of 0.37. In addition, in data set [2] (PO 20 mg/kg single dose), the Cl pred was 0.96 and the Vz pred came out at 2.56 L/kg. In data set [2], the “F (oral availability)” value was 38.70%. The “metabolic parameters (Cmax, AUClast, F %) compared with ABL-001” value in data set [2] (oral administration) is listed as “better metabolic parameters”.

Consider `O=C(Nc1ccc(OC(F)(F)Cl)cc1)c1cnc(N2CC[C@@H](O)C2)c(-c2ccns2)c1` [Example 3, (R)-6-(3-hydroxypyrrolidin-1-yl)-5-(isothiazol-5-yl)-N-(4-(chlorodifluoromethoxy)phenyl) nicotinamide], for which, in data set [3] (Mus musculus, BaF3, 72 h), the pIC50 was < 6.00.

For the molecule `O=C(Nc1ccc(OC(F)(F)Cl)cc1)c1cnc(N2CC[C@@H](O)C2)c(-c2cnn[nH]2)c1` [Example 4, (R)-6-(3-hydroxypyrrolidin-1-yl)-5-(1H-1,2,3-triazol-5-yl)-N-(4-(chlorodifluoromethoxy)phenyl)nicotinamide], in data set [3] (Mus musculus, BaF3, 72 h), the pIC50 is < 6.00.

In the case of `O=C(Nc1ccc(OC(F)(F)Cl)cc1)c1cnc(N2CC[C@@H](O)C2)c(-c2nnn[nH]2)c1` [Example 5, (R)-6-(3-hydroxypyrrolidin-1-yl)-5-(1H-1,2,34-tetrazol-5-yl)-N-(4-(chlorodifluoromethoxy)phenyl)nicotinamide], the pIC50 in data set [3] was < 6.00.

Consider `O=C(Nc1ccc(OC(F)(F)Cl)cc1)c1cnc(N2CC[C@@H](O)C2)c(-c2ncns2)c1` [Example 6], for which the pIC50 in data set [3] (Mus musculus, BaF3, 72 h) is < 6.00.

As to `Cc1ccc(NC(=O)c2ccc(CN3CCN(C)CC3)cc2)cc1Nc1nccc(-c2cccnc2)n1` [Imatinib], the “release of Ebola viral particles from infected cells” value in data set [4] is given as “stop the release of Ebola viral particles”.

`Cc1cn(-c2cc(NC(=O)c3ccc(C)c(Nc4nccc(-c5cccnc5)n4)c3)cc(C(F)(F)F)c2)cn1` [nilotinib]: the “release of Ebola viral particles from infected cells” value in data set [4] was “stop the release of Ebola viral particles”.

The term pIC50 denotes the IC50 on a negative log10 scale, so that one unit is a factor of ten. A word on the AUC(0-t): it is exposure summed from dosing to a finite time, without extrapolation to infinity. As a reminder, the Cmax is the maximum level reached in the sampled fluid or tissue.

(Values after patent publication US11319317B2, “(Hetero)arylamide compound for inhibiting protein kinase activity” (Shenzhen TargetRx, Inc., priority 2017, dated 2022).)
